Measured values: patent US10807959B2, “WDR5-MLL1 inhibitors and modulators” (Vanderbilt University, priority 2018, dated 2020)

Columns and labels:
WDR5 = WDR5 (Homo sapiens (Human), UniProt P61964); test: Fluorescence polarization anisotropy (FPA) competition assay, displacement of FITC-MLL or 10mer-Thr-FAM peptide; format: binding; details: Table B2, WDR5 WIN-site binding affinity; values not less than 1 nM (FPA)
Description: The assay is run in 384-well format and is read on a BioTek Cytation. […] Replicate values are fit to a 4-parameter fit in XLFit to generate a single IC50 value for each compound that is then converted to a Ki value. Experiments are repeated to generate a 2nd, independent Ki value; values from the two experiments are averaged to produce the reported Ki value for the compound.

MV4:11 cells = test: Cellular viability / anti-proliferative activity, CellTiter-Glo, 7 day protocol; format: cell-based, human; details: Homo sapiens, 168 h; MV4:11 leukemia cells after a 7 day incubation period
Experimental: Anti proliferative activity using MLL-harboring cell lines. MV4:11 cells are grown in RPMI-1640 media supplemented with 10% FBS and 1% penicillin/streptomycin. Viability assays are performed by dispensing […] into each well of an opaque 384-well plate and adding compounds at the indicated concentrations in a final volume of 32 μL and a final concentration of DMSO of 0.1% for all samples. After a set incubation period, 7 day protocol, the viability of cells in each well is assessed using the CellTiter-Glo assay (Promega), read on a GloMax 96 Microplane Luminometer (Promega). Serial dilutions of each cell type are included in all assays to generate standard curves and determine assay measurements are taken within the dynamic range of the instrument. GI50 values are calculated based on three biological replicates, each with three technical replicates. Data are expressed as mean plus/minus S.E.M.

| Ki (WDR5) [µM] | GI50 (MV4:11 cells) [µM] | SMILES |
| --- | --- | --- |
| 0.00401 | 3.28 | O=C(NCc1ccc(Cl)c(Cl)c1)c1ccc(F)c(CNC2=NCCN2)c1 [Example B6] |
| 0.0178 | > 30 | COc1cc(CNC(=O)c2cccc(CNC3=NCCN3)c2F)cc(OC)c1 [Example B21] |
